Data: article PMC12775434, “Ultra-large virtual screening unveils potent agonists of the neuromodulatory orphan receptor GPR139” (Nature Communications, 2025)
Values joined by “and” are separate entries in the source; they are usually repeats but may differ in a detail not shown here. Equal entries are not always repeated.

What was measured:
Assay type in all cases: cell-based
[1] = molecular target: T1, GPR139 (Homo sapiens, UniProt Q6DWJ6); assay: Ca2+ mobilization assay, agonist mode, stable GPR139-CHOk1 cell line; settings: for EC50 / Emax: Supplementary Table 2, mean ± SEM; for EC50: read-out: pEC50 Ca2+ (converted); for Emax: normalized to Lundbeck Cmp 1a, read-out: Emax (%) Ca2+
T1 sequence (Q6DWJ6 1-353): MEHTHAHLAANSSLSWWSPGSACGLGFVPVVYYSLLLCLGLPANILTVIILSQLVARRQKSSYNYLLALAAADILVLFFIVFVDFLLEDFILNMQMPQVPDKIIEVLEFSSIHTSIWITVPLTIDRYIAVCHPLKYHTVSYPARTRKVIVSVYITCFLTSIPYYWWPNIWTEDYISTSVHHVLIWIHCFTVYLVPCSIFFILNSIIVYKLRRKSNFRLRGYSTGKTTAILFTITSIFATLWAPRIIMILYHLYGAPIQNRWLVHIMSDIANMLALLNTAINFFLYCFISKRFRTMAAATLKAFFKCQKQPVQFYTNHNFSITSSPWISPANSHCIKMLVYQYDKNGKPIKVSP
Outline: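 Agonist activity of compounds is assessed in stably transfected CHO-K1 cells using the calcium dye Fluo-4 at 37 °C in HEPES-buffered HBSS (pH 7.4). Efficacy is expressed relative to the reference agonist Lundbeck Cmp 1a, set as 100%.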

[2] = molecular target: T1, GPR139; assay: Ca2+ mobilization assay, antagonist mode (EC80 800 nM Lundbeck Cmp 1a after 20 min preincubation), GPR139-CHOk1; settings: individual replicates (Supplementary Figure 4)
Outline: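 Antagonist mode: 800 nM (EC80) reference agonist Lundbeck Cmp 1a added following 20 min pre-incubation with 10 µM compound. GPR139-CHOk1 cells, Fluo-4 dye, probenecid-containing HEPES buffer pH 7.4; intracellular Ca2+ measured at 37 °C (ex 485, em 525 nm).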

[3] = molecular target: T2, human muscarinic acetylcholine M1 receptor (M1R) (Homo sapiens, UniProt P11229); assay: Ca2+ mobilization counter-screen in M1R-CHOk1 cells; settings: individual replicates (Supplementary Figure 5);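 also: 10 µM test compound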
T2 sequence (P11229 1-460): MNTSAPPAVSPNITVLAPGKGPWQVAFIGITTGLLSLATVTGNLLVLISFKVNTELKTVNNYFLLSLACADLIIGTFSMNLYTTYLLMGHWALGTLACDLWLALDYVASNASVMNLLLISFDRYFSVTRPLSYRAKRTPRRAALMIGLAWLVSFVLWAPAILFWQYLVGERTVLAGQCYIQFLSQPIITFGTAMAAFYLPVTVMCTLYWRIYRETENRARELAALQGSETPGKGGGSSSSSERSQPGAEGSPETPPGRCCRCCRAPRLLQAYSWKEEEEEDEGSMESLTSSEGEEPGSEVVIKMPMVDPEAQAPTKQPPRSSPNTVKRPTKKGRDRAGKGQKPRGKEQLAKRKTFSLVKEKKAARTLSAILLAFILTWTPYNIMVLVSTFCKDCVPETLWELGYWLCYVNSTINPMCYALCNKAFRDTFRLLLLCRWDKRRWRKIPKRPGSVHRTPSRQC
Outline: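 Counter-screen used CHO-K1 cells stably carrying human M1R, Fluo-4 AM-loaded (2 µM, 1 h, 37 °C). Calcium signal measured at 485/525 nm after compound addition.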

[4] = Agonist mode, individual replicates (Supplementary Figure 4)
[5] = log [Compound] M = -4.5, individual replicate columns
[6] = log [Compound] M = -5.0, individual replicate columns
[7] = log [Compound] M = -5.5, individual replicate columns
[8] = log [Compound] M = -6.0, individual replicate columns
[9] = log [Compound] M = -6.5, individual replicate columns
[10] = log [Compound] M = -7.0, individual replicate columns
[11] = log [Compound] M = -7.5, individual replicate columns
[12] = log [Compound] M = -8.0, individual replicate columns
[13] = log [Compound] M = -8.5, individual replicate columns
[14] = log [Compound] M = -9.0, individual replicate columns

| Structure (SMILES) | Ca2+ signal (% of Cmp 1a) [1, 4] | EC50 [1] [µM] | Emax [1] [%] | Ca2+ signal (% of Cmp 1a) [1, 5] | Ca2+ signal (% of Cmp 1a) [1, 6] | Ca2+ signal (% of Cmp 1a) [1, 7] | Ca2+ signal (% of Cmp 1a) [1, 8] | Ca2+ signal (% of Cmp 1a) [1, 9] | Ca2+ signal (% of Cmp 1a) [1, 10] | Ca2+ signal (% of Cmp 1a) [1, 11] | Ca2+ signal (% of Cmp 1a) [1, 12] | Ca2+ signal (% of Cmp 1a) [1, 13] | Ca2+ signal (% of Cmp 1a) [1, 14] | Ca2+ signal (% of Cmp 1a) [2] | Ca2+ signal (% of Carbachol) [3] | change in potency with larger substituents on the thiophene ring ([1]; Ca2+ mobilization) |
| --- | --- | --- | --- | --- | --- | --- | --- | --- | --- | --- | --- | --- | --- | --- | --- | --- |
| Cc1ccc(-c2nc(CC(=O)NC(C)c3ccccc3)no2)o1 (stereo not shown) [Compound 1.6, CC(C1=CC=CC=C1)NC(CC2=NOC(C3=CC=C(O3)C)=N2)=O] | 102 % of Cmp 1a and 114 % of Cmp 1a and 83 % of Cmp 1a | 0.158 | 112 ± 10 | 98 % of Cmp 1a and 103 % of Cmp 1a and 120 % of Cmp 1a | 89 % of Cmp 1a and 114 % of Cmp 1a and 105 % of Cmp 1a | 87 % of Cmp 1a and 107 % of Cmp 1a and 97 % of Cmp 1a | 70 % of Cmp 1a and 96 % of Cmp 1a and 81 % of Cmp 1a | 48 % of Cmp 1a and 70 % of Cmp 1a and 59 % of Cmp 1a | 17 % of Cmp 1a and 46 % of Cmp 1a and 43 % of Cmp 1a | -11 % of Cmp 1a and 21 % of Cmp 1a and 0 % of Cmp 1a | -16 % of Cmp 1a and -2 % of Cmp 1a and 1 % of Cmp 1a | -14 % of Cmp 1a and -8 % of Cmp 1a and -4 % of Cmp 1a | -22 % of Cmp 1a and -11 % of Cmp 1a and -20 % of Cmp 1a | -5.33 % of Cmp 1a and -3.67 % of Cmp 1a and -16 % of Cmp 1a | -2 % of Carbachol and -10 % of Carbachol and 10 % of Carbachol |  |
| Cc1c(-c2nc(CC(=O)NC(C)c3ccccc3)no2)sc2nccn12 (stereo not shown) [Compound 1.21, CC(C1=CC=CC=C1)NC(CC2=NOC(C3=C(C)N4C=CN=C4S3)=N2)=O] | 51 % of Cmp 1a and 103 % of Cmp 1a and 63 % of Cmp 1a | 1.26 | 88 ± 6 | 99 % of Cmp 1a and 106 % of Cmp 1a and 96 % of Cmp 1a and 82 % of Cmp 1a and 98 % of Cmp 1a | 106 % of Cmp 1a and 89 % of Cmp 1a and 74 % of Cmp 1a and 87 % of Cmp 1a and 93 % of Cmp 1a | 113 % of Cmp 1a and 82 % of Cmp 1a and 55 % of Cmp 1a and 93 % of Cmp 1a and 79 % of Cmp 1a | 58 % of Cmp 1a and 46 % of Cmp 1a and 13 % of Cmp 1a and 61 % of Cmp 1a and 35 % of Cmp 1a | 30 % of Cmp 1a and 22 % of Cmp 1a and -9 % of Cmp 1a and 34 % of Cmp 1a and 9 % of Cmp 1a | 11 % of Cmp 1a and 3.59 % of Cmp 1a and -6 % of Cmp 1a and 13 % of Cmp 1a and 2 % of Cmp 1a | -0.321 % of Cmp 1a and 1.12 % of Cmp 1a and 16 % of Cmp 1a and 9 % of Cmp 1a and 1.36 % of Cmp 1a | -0.311 % of Cmp 1a and 5 % of Cmp 1a and 16 % of Cmp 1a and 8 % of Cmp 1a and 4 % of Cmp 1a | -0.779 % of Cmp 1a and 5.49 % of Cmp 1a and -3.74 % of Cmp 1a and 4.43 % of Cmp 1a and 2.79 % of Cmp 1a | 6.41 % of Cmp 1a and 9 % of Cmp 1a and -8 % of Cmp 1a and 7.41 % of Cmp 1a and -0.105 % of Cmp 1a | 8 % of Cmp 1a and 24 % of Cmp 1a and 21 % of Cmp 1a | -6 % of Carbachol and -2 % of Carbachol and -1.22 % of Carbachol | three-fold reduction to a complete loss of activity |
